Work on CC(C)[C@H](N)C(=O)O yielded a solubility (mole fraction) (in 1,4-dioxane, 288.15 K) of 6.7e-05, a solubility (mole fraction) (in 1,4-dioxane, 293.15 K) of 8.7e-05 and a solubility (mole fraction) (in 1,4-dioxane, 298.15 K) of 0.000121. For the same compound, the solubility (mole fraction) (in 1,4-dioxane, 303.15 K) was 0.000169, the solubility (mole fraction) (in 1,4-dioxane, 308.15 K) was 0.000223 and the solubility (mole fraction) (in 1,4-dioxane, 313.15 K) was 0.000281. It also gave a solubility (mole fraction) (in 1,4-dioxane, 318.15 K) of 0.000346, a solubility (mole fraction) (in 1,4-dioxane, 323.15 K) of 0.00041 and a solubility (mole fraction) (in 1,4-dioxane, 328.15 K) of 0.000486. It also gave a solubility (mole fraction) (in acetone, 283.15 K) of 3.1e-05, a solubility (mole fraction) (in acetone, 288.15 K) of 4.1e-05 and a solubility (mole fraction) (in acetone, 293.15 K) of 5.6e-05. The solubility (mole fraction) (in acetone, 298.15 K) was 7.5e-05, the solubility (mole fraction) (in acetone, 303.15 K) was 0.0001 and the solubility (mole fraction) (in acetone, 308.15 K) was 0.000132. It also gave a solubility (mole fraction) (in acetone, 313.15 K) of 0.000171, a solubility (mole fraction) (in acetone, 318.15 K) of 0.000216 and a solubility (mole fraction) (in acetone, 323.15 K) of 0.000256. The solubility (mole fraction) (in acetonitrile, 283.15 K) was 2.4e-05, the solubility (mole fraction) (in acetonitrile, 288.15 K) was 3.3e-05 and the solubility (mole fraction) (in acetonitrile, 293.15 K) was 4.3e-05. For the same compound, the solubility (mole fraction) (in acetonitrile, 298.15 K) was 5.6e-05, the solubility (mole fraction) (in acetonitrile, 303.15 K) was 6.8e-05 and the solubility (mole fraction) (in acetonitrile, 308.15 K) was 8.2e-05. The solubility (mole fraction) (in acetonitrile, 313.15 K) was 9.9e-05, the solubility (mole fraction) (in acetonitrile, 318.15 K) was 0.000116 and the solubility (mole fraction) (in acetonitrile, 323.15 K) was 0.000136. For the same compound, the solubility (mole fraction) (in ethanol, 283.15 K) was 0.000254, the solubility (mole fraction) (in ethanol, 288.15 K) was 0.00026 and the solubility (mole fraction) (in ethanol, 293.15 K) was 0.000272. For the same compound, the solubility (mole fraction) (in ethanol, 298.15 K) was 0.000286, the solubility (mole fraction) (in ethanol, 303.15 K) was 0.000303 and the solubility (mole fraction) (in ethanol, 308.15 K) was 0.00032. The solubility (mole fraction) (in ethanol, 313.15 K) was 0.000338, the solubility (mole fraction) (in ethanol, 318.15 K) was 0.000357 and the solubility (mole fraction) (in ethanol, 323.15 K) was 0.00038. The solubility (mole fraction) (in ethyl acetate, 283.15 K) was 3.1e-05, the solubility (mole fraction) (in ethyl acetate, 288.15 K) was 3.7e-05 and the solubility (mole fraction) (in ethyl acetate, 293.15 K) was 4.6e-05. For the same compound, the solubility (mole fraction) (in ethyl acetate, 298.15 K) was 5.7e-05, the solubility (mole fraction) (in ethyl acetate, 303.15 K) was 7.1e-05 and the solubility (mole fraction) (in ethyl acetate, 308.15 K) was 8.4e-05. It also gave a solubility (mole fraction) (in ethyl acetate, 313.15 K) of 0.0001, a solubility (mole fraction) (in ethyl acetate, 318.15 K) of 0.000119 and a solubility (mole fraction) (in ethyl acetate, 323.15 K) of 0.000136. For the same compound, the solubility (mole fraction) (in isobutanol, 283.15 K) was 5e-05, the solubility (mole fraction) (in isobutanol, 288.15 K) was 6.1e-05 and the solubility (mole fraction) (in isobutanol, 293.15 K) was 7.8e-05. The solubility (mole fraction) (in isobutanol, 298.15 K) was 9.9e-05, the solubility (mole fraction) (in isobutanol, 303.15 K) was 0.000123 and the solubility (mole fraction) (in isobutanol, 308.15 K) was 0.000151. The solubility (mole fraction) (in isobutanol, 313.15 K) was 0.000185, the solubility (mole fraction) (in isobutanol, 318.15 K) was 0.000218 and the solubility (mole fraction) (in isobutanol, 323.15 K) was 0.000258. The solubility (mole fraction) (in isopropanol, 283.15 K) was 1.6e-05, the solubility (mole fraction) (in isopropanol, 288.15 K) was 1.8e-05 and the solubility (mole fraction) (in isopropanol, 293.15 K) was 2.5e-05. The solubility (mole fraction) (in isopropanol, 298.15 K) was 3.2e-05, the solubility (mole fraction) (in isopropanol, 303.15 K) was 4.2e-05 and the solubility (mole fraction) (in isopropanol, 308.15 K) was 5.6e-05. It also gave a solubility (mole fraction) (in isopropanol, 313.15 K) of 7e-05, a solubility (mole fraction) (in isopropanol, 318.15 K) of 9e-05 and a solubility (mole fraction) (in isopropanol, 323.15 K) of 0.00011. For the same compound, the solubility (mole fraction) (in methanol, 283.15 K) was 0.000585, the solubility (mole fraction) (in methanol, 288.15 K) was 0.000601 and the solubility (mole fraction) (in methanol, 293.15 K) was 0.000624. The solubility (mole fraction) (in methanol, 298.15 K) was 0.000652, the solubility (mole fraction) (in methanol, 303.15 K) was 0.000684 and the solubility (mole fraction) (in methanol, 308.15 K) was 0.000717. It also gave a solubility (mole fraction) (in methanol, 313.15 K) of 0.000754, a solubility (mole fraction) (in methanol, 318.15 K) of 0.000792 and a solubility (mole fraction) (in methanol, 323.15 K) of 0.000834. The solubility (mole fraction) (in methyl acetate, 283.15 K) was 3e-05, the solubility (mole fraction) (in methyl acetate, 288.15 K) was 3.2e-05 and the solubility (mole fraction) (in methyl acetate, 293.15 K) was 3.4e-05. For the same compound, the solubility (mole fraction) (in methyl acetate, 298.15 K) was 3.6e-05, the solubility (mole fraction) (in methyl acetate, 303.15 K) was 4.2e-05 and the solubility (mole fraction) (in methyl acetate, 308.15 K) was 5.1e-05. For the same compound, the solubility (mole fraction) (in methyl acetate, 313.15 K) was 6.7e-05, the solubility (mole fraction) (in methyl acetate, 318.15 K) was 8.8e-05 and the solubility (mole fraction) (in methyl acetate, 323.15 K) was 0.000115. The solubility (mole fraction) (in n-butanol, 283.15 K) was 2.4e-05, the solubility (mole fraction) (in n-butanol, 288.15 K) was 3.1e-05 and the solubility (mole fraction) (in n-butanol, 293.15 K) was 4.7e-05. For the same compound, the solubility (mole fraction) (in n-butanol, 298.15 K) was 6.9e-05, the solubility (mole fraction) (in n-butanol, 303.15 K) was 9.1e-05 and the solubility (mole fraction) (in n-butanol, 308.15 K) was 0.000115. The solubility (mole fraction) (in n-butanol, 313.15 K) was 0.000139, the solubility (mole fraction) (in n-butanol, 318.15 K) was 0.00017 and the solubility (mole fraction) (in n-butanol, 323.15 K) was 0.000203. It also gave a solubility (mole fraction) (in n-propanol, 283.15 K) of 1.5e-05, a solubility (mole fraction) (in n-propanol, 288.15 K) of 1.9e-05 and a solubility (mole fraction) (in n-propanol, 293.15 K) of 2.3e-05. The solubility (mole fraction) (in n-propanol, 298.15 K) was 3e-05, the solubility (mole fraction) (in n-propanol, 303.15 K) was 3.7e-05 and the solubility (mole fraction) (in n-propanol, 308.15 K) was 4.6e-05. The solubility (mole fraction) (in n-propanol, 313.15 K) was 5.5e-05, the solubility (mole fraction) (in n-propanol, 318.15 K) was 6.4e-05 and the solubility (mole fraction) (in n-propanol, 323.15 K) was 7.7e-05. For the same compound, the solubility (mole fraction) (in water, 283.15 K) was 0.00915, the solubility (mole fraction) (in water, 288.15 K) was 0.00921 and the solubility (mole fraction) (in water, 293.15 K) was 0.00937. The solubility (mole fraction) (in water, 298.15 K) was 0.00954, the solubility (mole fraction) (in water, 303.15 K) was 0.00976 and the solubility (mole fraction) (in water, 308.15 K) was 0.00998. The solubility (mole fraction) (in water, 313.15 K) was 0.0102, the solubility (mole fraction) (in water, 318.15 K) was 0.0105 and the solubility (mole fraction) (in water, 323.15 K) was 0.0108.
